Assay results taken from US20260061042A1, “POLYNUCLEOTIDE COMPOSITIONS AND USES THEREOF” (Pfizer Inc., priority 2024, published 2026).
Where a chain is given by its changes, count along the chain named. Where two headings read alike, the source gives them in different places.

Key:
[1] = target: T1, E. coli CFT073 PapG-II lectin domain PapGLD N96S WT v1, SEQ ID NO: 13 (Escherichia coli, UniProt A0A0H2VAQ6, N116S); assay: PapG Luminex ligand binding at equilibrium; settings: HEPES pH 7.4, 4° C. overnight
T1 sequence (A0A0H2VAQ6 with tags, fused parts or gaps N116S): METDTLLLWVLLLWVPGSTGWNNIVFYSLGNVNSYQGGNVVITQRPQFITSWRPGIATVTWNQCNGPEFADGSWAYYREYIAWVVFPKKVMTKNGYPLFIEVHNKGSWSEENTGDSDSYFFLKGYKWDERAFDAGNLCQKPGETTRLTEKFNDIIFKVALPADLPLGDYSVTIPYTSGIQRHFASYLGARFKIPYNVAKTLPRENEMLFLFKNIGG
Experimental: (§1) To determine the ability of PapGLD mutants to bind the porcine derived globotetraosyl ceramide ligand GalNAc-Gal-Gal-Glc-ceramide (GbO4), a Luminex ligand binding assay was developed. Surfactant Protein-A (SP-A) was coupled to the surface of MagPlex beads by EDC/NHS, to capture the lipid tail of the globotetraosyl ceramide. The Globotetraosyl ceramide/SP-A beads were incubated with an eight-point threefold titration of PapG in a 96 well flat bottom white plate with final volume of 100 microliters of 50 mM HEPES PH 7.4, 10 mM NaCl, 0.0005% Tween 20 shaking at 300 rpm, 4° C. overnight. After 20-24 hours the ligand binding plates were read on a FlexMap 3D plate reader for measurement of well-bead region specific MFI. Ligand binding equilibrium dissociation constants (Kd) were calculated assuming one site specific binding and interpolated using non-linear curve fitting (GraphPad Prism) as the ligand concentration needed to achieve half-maximal binding. The Luminex derived apparent Kd values are based on approximately fifty bead counts per assay sample.
(§2) To determine Luminex ligand binding affinities of PapG mutants for the synthetic globoside ligand Gal-Glc-phenoxy-octyl-amine (GbO2Mpo), a Luminex ligand binding assay was developed based on the direct coupling of the amine reactive globoside ligand to the EDC/NHS activated carboxylic surface of MagPlex beads. Synthesis of GbO2Mpo ligand with an octyl amine linker (for coupling to beads) was performed via methods described previously. The GbO2Mpo beads were incubated with an 8-point, threefold titration of PapG in a 96-well flat bottom white plate with final volume of 100 μl of 50 mM HEPES pH 7.4, 10 mM NaCl, 0.0005% Tween 20 shaking at 300 rpm, 4° C. overnight. After 20-24 hours the ligand binding plates were read on a FlexMap 3D plate reader for measurement of well-bead region specific MFI.
(§3) Binding of PapG proteins to GbO2 or GbO4 ligands was evaluated using a Luminex platform wherein ligands were coupled to MagPlex beads via surfactant protein A (for […]) or directly using […] conjugation (for […]). This assay was used to rank order binding affinities of the mutants, reported as Kd values interpolated from protein antigen titration curves (Table 7).

[2] = target: T2, E. coli CFT073 PapG-II lectin domain PapGLD variant N96S G18A, SEQ ID NO: 18 (Escherichia coli, UniProt A0A0H2VAQ6, G38A/N116S); assay: PapG Luminex ligand binding at equilibrium; settings: HEPES pH 7.4, 4° C. overnight
T2 sequence (A0A0H2VAQ6 with tags, fused parts or gaps G38A/N116S): T1 sequence (A0A0H2VAQ6 with tags, fused parts or gaps N116S) with G38A
Experimental: as §1, §2, §3

[3] = GbO2Mpo beads, read-out: Kd (GbO2)
[4] = GbO4 beads, read-out: Kd (GbO4)

## Gal-Glc-phenoxy-octyl-amine [GbO2]
[1]; [3]
  Kd: 0.7 nM
[2]; [3]
  Kd: 1.8 nM

## GalNAc-Gal-Gal-Glc-ceramide [GbO4]
[1]; [4]
  Kd: 14.1 nM
[2]; [4]
  Kd: > 10 nM
